Laboratory results: US20230138177A1 (priority 2020, published 2023)

Columns and labels:
[1] = target: T1, DYRK1B (Homo sapiens, UniProt Q9Y463, P333A); type: cell-based
T1 construct: expressed in transfected cells; host or cells: glioma cells (U87)

[2] = target: T2, DYRK1B (Homo sapiens, UniProt Q9Y463); type: cell-based; parameters: expressed in transfected cells; host or cells: glioma cells (U87)
[3] = target: T2, DYRK1B; type: biochemical; parameters: expressed in transfected cells; host or cells: HEK293T or U87 cells; immunoprecipitate used in vitro; settings: FLAG-DYRK1B from cells treated with harmine 10 μM or CX-4945 1 μM for 8 hours
[4] = test system: DYRK1B; type: cell-based, human
[5] = test system: GSK3β; type: biochemical, human
GSK3β, sequence (P49841 whole entry): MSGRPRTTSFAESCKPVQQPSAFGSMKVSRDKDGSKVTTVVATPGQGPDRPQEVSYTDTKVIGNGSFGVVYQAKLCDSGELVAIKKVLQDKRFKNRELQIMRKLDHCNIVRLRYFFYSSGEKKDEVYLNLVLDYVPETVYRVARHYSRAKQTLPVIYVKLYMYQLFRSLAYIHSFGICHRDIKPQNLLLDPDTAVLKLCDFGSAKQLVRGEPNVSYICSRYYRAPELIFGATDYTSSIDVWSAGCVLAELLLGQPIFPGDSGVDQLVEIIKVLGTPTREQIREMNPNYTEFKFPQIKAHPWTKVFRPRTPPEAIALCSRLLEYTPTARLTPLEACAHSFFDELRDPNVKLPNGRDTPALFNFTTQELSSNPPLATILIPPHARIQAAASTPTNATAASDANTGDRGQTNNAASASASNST

[6] = test system: GSK3β; type: cell-based, human
[7] = test system: DYRK1A; type: cell-based, human
[8] = test system: VCB-CUL2 complex; type: binding
[9] = test system: HIF2α; type: cell-based, human
[10] = test system: DYRK4

T2 sequence (Q9Y463 whole entry): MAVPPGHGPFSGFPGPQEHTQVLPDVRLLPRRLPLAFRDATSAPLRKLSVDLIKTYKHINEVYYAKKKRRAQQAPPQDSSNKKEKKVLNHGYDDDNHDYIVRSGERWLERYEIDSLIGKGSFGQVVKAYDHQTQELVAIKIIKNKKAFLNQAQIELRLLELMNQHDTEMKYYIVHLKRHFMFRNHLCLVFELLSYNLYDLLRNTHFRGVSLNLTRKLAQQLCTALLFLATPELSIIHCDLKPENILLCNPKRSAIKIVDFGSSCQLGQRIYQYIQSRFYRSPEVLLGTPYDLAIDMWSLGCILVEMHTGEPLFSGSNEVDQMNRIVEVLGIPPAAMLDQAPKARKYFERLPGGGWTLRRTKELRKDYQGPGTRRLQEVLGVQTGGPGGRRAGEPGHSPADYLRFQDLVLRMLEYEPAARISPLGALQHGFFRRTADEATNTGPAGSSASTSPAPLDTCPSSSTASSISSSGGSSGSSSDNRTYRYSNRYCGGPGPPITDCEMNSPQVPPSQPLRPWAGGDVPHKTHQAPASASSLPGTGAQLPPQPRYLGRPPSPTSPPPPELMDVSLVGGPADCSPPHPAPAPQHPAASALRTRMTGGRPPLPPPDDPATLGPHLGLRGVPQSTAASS
T1 sequence (Q9Y463 whole entry P333A): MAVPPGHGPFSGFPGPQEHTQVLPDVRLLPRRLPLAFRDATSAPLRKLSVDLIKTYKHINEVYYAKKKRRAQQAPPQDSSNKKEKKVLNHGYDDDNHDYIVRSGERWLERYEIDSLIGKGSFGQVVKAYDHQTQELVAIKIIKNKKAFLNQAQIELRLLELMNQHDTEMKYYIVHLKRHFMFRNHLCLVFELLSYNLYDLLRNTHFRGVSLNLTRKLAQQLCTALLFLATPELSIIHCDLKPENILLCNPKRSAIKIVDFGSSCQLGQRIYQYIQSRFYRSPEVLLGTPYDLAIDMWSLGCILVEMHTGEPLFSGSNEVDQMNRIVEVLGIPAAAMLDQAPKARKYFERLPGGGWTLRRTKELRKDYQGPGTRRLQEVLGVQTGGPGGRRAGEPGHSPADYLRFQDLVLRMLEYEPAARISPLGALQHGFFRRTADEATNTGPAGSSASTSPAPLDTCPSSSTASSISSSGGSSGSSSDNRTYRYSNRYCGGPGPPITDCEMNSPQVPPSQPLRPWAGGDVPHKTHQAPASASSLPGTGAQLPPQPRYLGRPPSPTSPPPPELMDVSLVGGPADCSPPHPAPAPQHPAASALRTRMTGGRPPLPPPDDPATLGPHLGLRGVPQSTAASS

Row | Molecule | prolyl hydroxylation of DYRK1B-P333A [1] | tyrosine auto-phosphorylation of DYRK1B-P333A [1] | prolyl hydroxylation of DYRK1B [2] | tyrosine autophosphorylation of DYRK1B [2] | phosphorylation of the ID2-T27 substrate [3] | proline hydroxylation on DYRK1 kinase [2] | prolyl hydroxylation of DYRK1B [4] | tyrosine autophosphorylation of DYRK1B [4] | GSK3β-mediated phosphorylation of GST-c-MYC [5] | prolyl hydroxylation of GSK3β [6] | tyrosine autophosphorylation of GSK3β [6] | prolyl hydroxylation of DYRK1A [7] | tyrosine autophosphorylation of DYRK1A [7] | ID2-mediated dissociation of CUL2 from VCB [8] | VHL-HIF2α interaction [8] | proline hydroxylation on HIF2-α [9] | prolyl-hydroxylation of HIF2α [9] | prolyl hydroxylation of DYRK4 [10] | tyrosine autophosphorylation of DYRK4 [10]
1 | COC(=O)CNC(=O)C(=O)OC [DMOG, dimethyloxalylglycine] | caused loss | caused loss | caused loss | caused loss |  |  |  |  |  |  |  |  |  |  |  |  |  |  | 
2 | COc1ccc2c(c1)[nH]c1c(C)nccc12 [harmine] |  |  | failed to perturb | severely impairing | severely impairing |  |  |  |  |  |  |  |  |  |  |  |  |  | 
3 | CoCl2 |  |  | caused loss | caused loss |  | complete elimination | abolished | abolished | abolished | caused loss | caused loss | abolished | abolished | elicited | disrupted | complete elimination | prevented | caused loss | caused loss
